Laboratory results as given in US4173636A, “Decahydroquinolines, pharmaceutical compositions and methods of use” (Labaz, priority 1975, dated 1979).
Read-outs that look alike come from different tables or passages of the source.

Assays:
[1] = system: squeak at threshold-voltage (pain); assay: NILSEN electric tail stimulation test, intragastric; format: in vivo, mice; settings: Mus musculus, po
Protocol: The second test was carried out according to the technique of NILSEN (Acta Pharmacol. et toxicol. 18, 10, 1961) on batches of 10 mice.
The animals were connected to a source of electric current by means of two electrodes inserted into the tail.
The threshold-voltage was then determined, i.e. the minimum voltage which, in the course of two successive shocks, caused the animals to squeak at least one time out of two. After this, the compound to be studied was administered by intragastric route.
Note was taken of the dose of compound (AD50) which suppressed the squeak in half of the treated animals.

contorsions [2] = assay: SIEGMUND phenylbenzoquinone contorsion test; format: in vivo, male mice; settings: Mus musculus
Protocol: The third test was carried out according to the technique of SIEGMUND and al (Proc. Soc. Exp. Biol. Med. 95, 729, 1957) on batches of 10 male mice.
A typical syndrome was produced in the animals by intraperitoneal injection of 0.25 ml. of a 0.02% aqueous solution of 2-phenyl-1,4-benzoquinone (phenylbenzoquinone).
The syndrome in question is characterized by intermittent contractions of the abdomen, twisting and turning of the trunk and extension of the hind legs. Note was taken of the number of movements occurring over a period of 30 minutes starting 15 minutes after the injection of phenylbenzoquinone.
The compound to be tested was injected 30 minutes before the phenylbenzoquinone in such a way that each batch received a higher dose than the preceding batch, a control batch receiving only the phenylbenzoquinone.
Note was taken of the AD50, i.e. the dose of substance which reduced at least by half the number of contorsions in half of the animals, as compared to the number of contorsions observed in the control group.

contorsions [3] = assay: KOSTER acetic acid contorsion test, intragastric; format: in vivo, mice; settings: Mus musculus, po
Protocol: The first test was carried out according to the technique of KOSTER (Fed. Proc. 18, 412, 1959) on batches of 20 mice which had been deprived of food for 18 hours.
Each batch of animals with the exception of the controls was given an intragastric dose of the compound to be studied so that each batch received a higher dose than the preceding batch. Thirty minutes after administration, the animals of each batch, as well as the control animals, were given intraperitoneally 0.2 ml. of a 0.25% acetic acid solution per 10 g. of body-weight.
During the 20 minutes following the injection of acetic acid, the number of characteristic contorsions made by the animals was noted. The absence of contorsions corresponds to animals under the influence of analgesia.
Note was taken of the AD50, i.e. the dose of the compound under study which provoked analgesia in half of the animals treated.

pain-threshold voltage = assay: CHARLIER electric stimulation pain-threshold test, intragastric; format: in vivo, rats; settings: Rattus norvegicus, po
Protocol: The fourth test was carried out according to the technique of CHARLIER and al (Arch. int. Pharmacodyn. 134, 306, 1961) on batches of 10 rats.
The animals were connected to a source of electric current by means of two electrodes of which one was attached to the tail and the other maintained in the rectum.
The pain-threshold voltage was then determined for each rat by passing a current of 2 volts and increasing the current by one volt at a time until the animal gave a squeak. This control test was repeated three times at intervals of 15 minutes. The compound under study was then administered by intragastric route and, starting from the threshold-voltage already determined note was taken, every 10 minutes for 2 hours, of the voltage which caused the animals to squeak.
The results were noted according to the WINTER and FLATAKER scale (J. Pharmacol. Exp. Therap. 98, 305, 1950) and the AD's 50 obtained are listed in the Table given hereunder: […]

contorsions [4] = assay: animal or person; format: in vivo, mice; settings: Mus musculus, sc, read-out: AD50
[5] = system: reaction time (flick-tail); assay: animal or person; format: in vivo, male rats; settings: Rattus norvegicus, sc, read-out: AD50
[6] = system: squeak at threshold-voltage (pain); assay: animal or person; format: in vivo, mice; settings: Mus musculus, sc, read-out: AD50

Row | Compound | ED50 ([1]; read-out: AD50) | ED50 (contorsions [2]; read-out: AD50) | ED50 (contorsions [3]; read-out: AD50) | ED50 (pain-threshold voltage; 2 h, read-out: AD50) | ED50 (contorsions [4]) | ED50 [5] | ED50 [6] | other results
1 | CC(=O)Oc1ccccc1C(=O)O [Acetylsalicyclic acid, Acetylsalicylic acid] | 1100 mg/kg | 50 mg/kg | 150 mg/kg | 1300 mg/kg |  |  |  | 
2 | Cc1cc(=O)n(-c2ccccc2)n1C [Antipyrine] |  |  |  |  |  |  |  | ED50 ([1]; intragastric, mice, suppressed the squeak in half of the treated animals, read-out: AD50 (the source's name)): 400 mg/kg; ED50 (contorsions [2]; injected 30 minutes before phenylbenzoquinone, male mice, contorsions reduced at least by half in half of the animals, read-out: AD50 (the source's name)): 100 mg/kg; ED50 (contorsions [3]; intragastric, mice, 30 min before 0.25% acetic acid i.p., analgesia in half of the animals, read-out: AD50 (the source's name)): 120 mg/kg; ED50 (pain-threshold voltage; intragastric, rats, WINTER and FLATAKER scale, 2 hours, read-out: AD50 (the source's name)): 500 mg/kg
3 | O=C(OCC(O)CO)c1ccccc1Nc1ccnc2cc(Cl)ccc12 (stereo not shown) [Glafenine] |  | 325 mg/kg | 110 mg/kg |  |  |  |  | 
4 | CC(C)=CCN1CCC2(C)c3cc(O)ccc3CC1C2C (stereo not shown) [Pentazocine] |  |  | 45 mg/kg |  | 5 mg/kg | 3 mg/kg | 12 mg/kg | 
5 | CCOC(=O)C1(c2ccccc2)CCN(C)CC1 [Pethidine] |  |  |  | 50 mg/kg | 7 mg/kg | 5.5 mg/kg | 7 mg/kg | 
6 | CCOc1ccc(NC(C)=O)cc1 [Phenacetine] | 450 mg/kg | 80 mg/kg | 160 mg/kg | 750 mg/kg |  |  |  | 
